According to publication PMC8413904 (Pharmacology Research & Perspectives, 2021):

Experiments:
Assay type in all cases: cell-based
GluN1/2A = GluN1/2A (UniProt P35439+Q12879); experiment: Whole‐cell patch‐clamp electrophysiology in HEK293T cells; design: expressed in transfected cells; host or cells: HEK-293 / HEK293T cells
Method: Whole‐cell patch‐clamp electrophysiology studies were carried out in the HEK‐293 cells, expressing recombinant NMDARs that lack native functional NMDARs.[40], [41], [42] Equal quantity of (1 µg) cDNA for GluN1a, GluN2 (A or B or C or D) subunits were co‐transfected 24–48 h before patch‐clamp electrophysiology assay. […] Cells were carefully washed before performing experiments and were used for the electrophysiology experiments after 24–48 h incubation at 37°C with 5%CO2. The whole‐cell patch‐clamp electrophysiology assay was performed using semi‐automated patch‐clamp equipment, Port‐a‐Patch (Nanion Technologies GmbH). Following are the constituents of various solutions used for patch‐clamp electrophysiology: internal solution [(mM) NaCl 10, EGTA 20, CsF 110, HEPES 10], Mg‐free external (recording) solution [(mM) NaCl 140, KCl 4, CaCl2 2, HEPES 10, D‐GlucoseMonohydrate 5], and Mg‐free seal enhancer solution [(mM) NaCl 80, KCl 3, CaCl2 35, HEPES 10]. Nanion NPC chips with […] resistance were used for the HEK‐293 cell recordings.

GluN1/2C = GluN1/2C (UniProt P35439+Q14957); experiment: TEVC electrophysiology dose–response in xenopus oocytes; design: host or cells: Xenopus oocytes (cRNA injection)
Chain of GluN1/2C (Q14957 20-1233, other chains not shown): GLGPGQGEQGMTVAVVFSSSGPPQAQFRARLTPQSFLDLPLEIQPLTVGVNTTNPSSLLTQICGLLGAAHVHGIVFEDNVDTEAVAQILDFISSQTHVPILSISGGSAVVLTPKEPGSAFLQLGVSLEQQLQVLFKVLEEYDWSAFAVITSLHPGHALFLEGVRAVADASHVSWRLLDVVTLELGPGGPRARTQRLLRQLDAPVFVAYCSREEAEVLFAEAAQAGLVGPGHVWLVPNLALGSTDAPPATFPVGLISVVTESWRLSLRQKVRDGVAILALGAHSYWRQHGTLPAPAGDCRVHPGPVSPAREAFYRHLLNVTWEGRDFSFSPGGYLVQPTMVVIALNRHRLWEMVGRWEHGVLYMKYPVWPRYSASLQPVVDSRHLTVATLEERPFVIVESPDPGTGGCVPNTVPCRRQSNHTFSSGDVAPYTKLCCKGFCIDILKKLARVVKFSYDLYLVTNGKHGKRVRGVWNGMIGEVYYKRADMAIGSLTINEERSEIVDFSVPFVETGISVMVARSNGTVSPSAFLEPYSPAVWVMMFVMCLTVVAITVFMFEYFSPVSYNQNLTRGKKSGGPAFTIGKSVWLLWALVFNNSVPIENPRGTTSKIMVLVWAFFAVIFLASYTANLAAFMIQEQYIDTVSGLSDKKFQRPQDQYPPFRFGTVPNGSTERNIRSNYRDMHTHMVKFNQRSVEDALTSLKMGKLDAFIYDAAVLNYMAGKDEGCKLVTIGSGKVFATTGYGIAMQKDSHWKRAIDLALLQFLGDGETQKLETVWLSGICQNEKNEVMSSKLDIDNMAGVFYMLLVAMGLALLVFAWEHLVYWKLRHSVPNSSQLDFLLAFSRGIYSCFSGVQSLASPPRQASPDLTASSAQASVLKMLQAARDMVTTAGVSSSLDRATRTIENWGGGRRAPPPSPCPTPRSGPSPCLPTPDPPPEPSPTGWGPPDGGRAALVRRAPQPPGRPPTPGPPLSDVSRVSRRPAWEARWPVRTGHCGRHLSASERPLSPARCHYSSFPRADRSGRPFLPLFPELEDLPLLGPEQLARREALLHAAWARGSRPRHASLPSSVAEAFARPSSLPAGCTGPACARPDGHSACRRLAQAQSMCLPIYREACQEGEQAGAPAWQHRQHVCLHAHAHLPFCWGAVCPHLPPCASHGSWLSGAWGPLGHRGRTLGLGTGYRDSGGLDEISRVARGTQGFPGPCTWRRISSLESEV
From the text: NMDAR constructs: cDNA encoding the NMDAR1a subunit (GluN1a) was obtained from Dr. Nakanishi. cDNA encoding the GluN2B (pci_sepGluN2B) was developed initially in the Malinow lab[36] and purchased from Addgene (cat# 23998). cDNA encoding the GluN2C and GluN2D were purchased from GenScript. Mutated GluN1, 2A and 2B cDNA constructs capable of assembling as GluN1/2A/2B triheteromeric (1/2AB) receptors[37] were obtained from Dr. Paoletti (Laboratoire de Neurobiologie, CNRS). […] Plasmids were linearized with NotI (GluN1a) or Avrll (GluN2B), or BstB1 (GluN2C and GluN2D) and transcribed in vitro with T7 (GluN1a, GluN1/2A, GluN2B, GluN2C, & GluN2D) RNA polymerase using the mMessage mMachine transcription kits (Invitrogen by Thermo Fisher Scientific). […]
Electrophysiological responses were measured using a standard two‐microelectrode voltage‐clamp workstation [Warner Instruments (Hamden, Connecticut) model OC‐725C] designed to provide a fast clamp of large cells. […] Response magnitude was determined in xenopus oocytes expressing different NMDAR subunits (GluN1/2A, 1/2B, 1/2C, 1/2D, and 1/2A/2B) by the steady plateau response elicited by bath application of different agonist concentrations. […] Statistical significance was determined at the overall alpha level .05, using appropriate statistical methods as described in each figure captions.

[1] = test system: cultured rat brain cortical neurons; experiment: Dynamic calcium assay (Fluo‐8)
Method: All animal experimental procedures and housing have been approved by the Institutional Animal Care and Use Committee (IACUC) protocol #18‐015 of Virginia Tech. Embryonic day 18 (E18) rat brain tissue samples were obtained from adult pregnant SD rats. Rat brain primary cortical, striatal, and cerebellar neurons were cultured on poly‐d‐lysine coated 96‐well plates for 14 days in vitro (DIV14) before using for the experiments. Primary rat neuron culture was performed as previously published.[44] Briefly, each well of a 96 well plate was loaded with 50 000 cells and grown in 200 µl neurobasal media supplemented with B27, glutamax, penicillin, streptomycin. One hundred microliters of media was replaced with fresh media once in 4 days. Eight to thirteen fetus were obtained from each pregnant rat. Brain tissue from these fetus were pooled to obtain the neurons. Cortical, striatal, and cerebellar neuron assays were carried out at different time points.
Dynamic calcium assay was carried out, using Fluo‐8 no‐wash kit (abcam, ab112129), as per the manufacturer's instructions with minor modifications to fit with experimental necessities. On DIV14, all 200 μl of media was removed and replaced it with 100 μl of HBSS and 100 μl of Fluo‐8 dye loading solution. The plates were incubated at 37°C for 30 min and at room temperature for 30 min. […] Costar 96‐well clear bottom black side plates were read from the bottom, nine times, with 60 s intervals between each read. Temperature was set at 37°C and reading speed was 100 ms.

Chain of GluN1/2A (Q12879 23-1464, other chains not shown): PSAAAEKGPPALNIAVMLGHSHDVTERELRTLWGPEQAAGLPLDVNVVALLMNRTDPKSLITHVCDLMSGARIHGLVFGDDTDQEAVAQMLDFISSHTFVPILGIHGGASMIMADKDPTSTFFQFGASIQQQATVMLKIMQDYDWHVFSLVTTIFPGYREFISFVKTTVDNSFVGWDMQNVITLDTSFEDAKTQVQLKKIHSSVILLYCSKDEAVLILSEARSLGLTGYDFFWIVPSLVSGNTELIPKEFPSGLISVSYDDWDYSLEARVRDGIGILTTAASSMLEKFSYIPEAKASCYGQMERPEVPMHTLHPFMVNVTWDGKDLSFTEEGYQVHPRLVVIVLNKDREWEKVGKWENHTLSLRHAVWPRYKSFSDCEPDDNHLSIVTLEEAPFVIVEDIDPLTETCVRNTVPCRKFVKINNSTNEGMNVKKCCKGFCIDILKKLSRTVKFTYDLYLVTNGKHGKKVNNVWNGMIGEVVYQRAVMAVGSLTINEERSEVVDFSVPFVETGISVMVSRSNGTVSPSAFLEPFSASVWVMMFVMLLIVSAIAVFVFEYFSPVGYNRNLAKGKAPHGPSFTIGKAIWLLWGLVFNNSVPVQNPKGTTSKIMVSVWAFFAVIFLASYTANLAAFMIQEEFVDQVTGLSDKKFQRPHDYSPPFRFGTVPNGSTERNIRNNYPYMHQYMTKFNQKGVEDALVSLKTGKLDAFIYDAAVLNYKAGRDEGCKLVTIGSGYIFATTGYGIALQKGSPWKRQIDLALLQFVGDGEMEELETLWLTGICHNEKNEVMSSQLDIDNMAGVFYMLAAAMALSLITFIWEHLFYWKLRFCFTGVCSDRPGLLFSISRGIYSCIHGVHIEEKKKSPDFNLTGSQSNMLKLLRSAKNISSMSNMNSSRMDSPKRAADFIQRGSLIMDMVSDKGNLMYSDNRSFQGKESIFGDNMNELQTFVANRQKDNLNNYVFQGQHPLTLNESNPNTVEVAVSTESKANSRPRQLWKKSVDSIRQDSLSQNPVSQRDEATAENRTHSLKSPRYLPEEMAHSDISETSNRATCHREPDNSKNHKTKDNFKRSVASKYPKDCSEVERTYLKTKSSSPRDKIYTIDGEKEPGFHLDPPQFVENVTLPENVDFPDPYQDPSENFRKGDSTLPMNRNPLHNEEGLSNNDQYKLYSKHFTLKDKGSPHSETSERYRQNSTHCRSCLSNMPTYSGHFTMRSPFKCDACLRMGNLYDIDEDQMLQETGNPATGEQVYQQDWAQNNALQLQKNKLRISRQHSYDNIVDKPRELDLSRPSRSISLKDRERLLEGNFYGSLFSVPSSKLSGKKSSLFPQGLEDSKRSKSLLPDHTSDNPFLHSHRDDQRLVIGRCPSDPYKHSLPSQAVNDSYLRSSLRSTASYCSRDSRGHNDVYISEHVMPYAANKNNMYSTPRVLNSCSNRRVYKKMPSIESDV

O=C(NC(=S)N1CCCCC1c1cccnc1)c1ccc(F)cc1 (stereo not shown) [CNS4, 4‐fluoro‐N‐(2‐(pyridin‐3‐yl)piperidine‐1‐carbonothioyl)benzamide] was tested, and the “deactivation time constant tau (τ)” value (GluN1/2A; 100 µM CNS4 + Ag (100 µM glutamate + 100 µM glycine), n = 19, Ag alone 710.9 ± 98.27 ms, n = 9, p < .05) was 1067 ± 104.3 ms, the “effect on maximum inducible current” value (GluN1/2A; 100 µM CNS4 co‐applied with agonist, 0.3 µM glutamate + 100 µM glycine) was “significantly potentiated” and the “effect on peak current amplitude” value (GluN1/2A; 100 µM CNS4 co‐applied with agonist, 100 µM glutamate + 100 µM glycine) was “significantly inhibited”. The “current response, agonist alone induced maximum current normalized to 100%” value (GluN1/2C; 100 µM CNS4, 0.3 µM glutamate + 100 µM glycine, −60 mV, average ± SEM) was 506.34% ± 52.9%, the “potentiation of receptor current” value (GluN1/2C; higher concentration (100 & 300 µM) of glutamate, almost no effect) was < 20% and the “calcium signals compared to CNS4 alone treated cells” value ([1]; 100 µM CNS4 + 10 µM or higher concentrations of NMDA) was “significantly increased calcium signals”. For the same compound, the “Ca^2+ signal, mean rfu” value ([1]; 100 µM CNS4 + 100 µM GABA, p < .001 vs GABA alone (4196)) was 5124 rfu, the “Ca^2+ signal, mean rfu” value ([1]; 100 µM CNS4 + 100 µM acetylcholine, p < .0001 vs acetylcholine alone (6222)) was 8082 rfu and the “Ca^2+ signal, mean rfu” value ([1]; 100 µM CNS4 + 100 µM glutamate + 50 µM MK801, p = .7757 vs glutamate + MK801 (7997)) was 8359 rfu. The “Ca^2+ signal compared to background” value ([1]; 100 µM CNS4 in the presence of 0.3, 1, 3 µM NMDA) was “did not increase Ca^2+ signal”, the “Ca^2+ signal without NMDA” value ([1]; 100 µM CNS4 in vehicle (HBSS) with no NMDA, Figure 6A) was “no significant Ca^2+ signal” and the “more Ca^2+ signal compared to plain 300 µM NMDA” value ([1]; 100 µM CNS4 plus 300 µM NMDA) was 43%. For the same compound, the “Ca^2+ signal, mean rfu” value ([1]; 100 µM CNS4 plus 300 µM NMDA, p < .0001 vs 300 µM NMDA alone (26711)) was 38274 rfu.
